Experimental findings from patent publication US8445531B2, “Rodenticidal compounds, composition including same and use thereof for controlling harmful rodents” (priority 2010, dated 2013) are described below.

For data set [1], the system named is rats. Description: Mortality follow-up in rats after repeated administration. Format: in vivo, rat. The source says:
The rodenticidal effectiveness and the remanence of the compounds according to the invention have been tested in comparison with the rodenticidal product of reference bromadiolone, with bromadiolone being the least remanent of all of the second-generation anticoagulants currently used in combating rodents.
For this test, the compound of formula (II) that is obtained by implementing the process disclosed above is used.
(§1) 3 lots of 5 rats were used for the compound of formula (II), and 2 lots of 4 rats were used for bromadiolone.
(§2) 3 doses of 10 mg/kg of rat were administered intraperitoneally in succession at T0, T24h and T48h.
1 lot of rats was used to follow the mortality rate brought about by the 3 administrations of the compound of formula (II) according to the invention.
(§3) Doses of 2 mg/kg/day were administered for 4 days.
1 lot of rats was used to determine the mortality rate brought about at T120h.

In data set [2] the test system is rats. Kind of data set: Coagulation time follow-up in rats. Type of data set: in vivo, rat. As for the experimental part:
as §1, §2
1 lot of rats was used to follow the coagulation time between 24 hours and 120 hours after the first injection. Actually, the coagulation time is the first parameter that varies and tends toward infinity under the action of an anticoagulant.
as §3
1 lot of rats was used to follow the coagulation time between 24 hours and 120 hours after the first injection.

A short description of data set [3]: Liver residue follow-up (remanence) in rats. Type of data set: in vivo. The note with it: rat liver. The protocol: as §1, §2
1 lot of rats was used to carry out a metering of residue of the compound of formula (II) in the liver at T72h, T96h and T120h.
as §3
A metering of bromadiolone residue in the liver at T120h was carried out.

[4] abbreviates: 3 doses of 10 mg/kg intraperitoneally at T0, T24h, T48h, T24 h.
[5] abbreviates: 3 doses of 10 mg/kg intraperitoneally at T0, T24h, T48h, T48 h.
Where [6] appears, read: 3 doses of 10 mg/kg intraperitoneally at T0, T24h, T48h, T72 h.

For the molecule `O=c1oc2ccccc2c(O)c1C(CC(O)c1ccc(-c2ccc(Br)cc2)cc1)c1ccccc1` (stereo not drawn) [Bromadiolone, bromadiolone], the “Total Mortality” value with rats [1] (2 mg/kg/day for 4 days, 2 mg/kg/day) is 100%; with rats [1] (2 mg/kg/day for 4 days, listed as reference rodenticidal product, 2 mg/kg/day), 100%. Moreover, the “Mortality Follow-Up” value with rats [1] (2 mg/kg/day for 4 days, T96 h) came out at 2 Deaths; in the data set on rats [1] (2 mg/kg/day for 4 days, T120 h) it was 2 Deaths. The “Coagulation Time Follow-Up” value in the data set with rats [2] (2 mg/kg/day for 4 days, T0) is “Infinite”; with rats [2] (2 mg/kg/day for 4 days, T24 h), “Infinite”; in the data set on rats [2] (2 mg/kg/day for 4 days, T48 h) it was “Infinite”; in the data set with rats [2] (2 mg/kg/day for 4 days, T72 h) it was “Infinite”; in the data set on rats [2] (2 mg/kg/day for 4 days, T96 h), “Infinite”; in the data set on rats [2] (2 mg/kg/day for 4 days, T120 h, 2 mg/kg/day), “Infinite”. For the same molecule, the “Coagulation Time Follow-Up” value with rats [2] (2 mg/kg/day for 4 days, T120 h, listed as bromadiolone, 2 mg/kg/day) is listed as “infinite”. Also, the “Liver Residue Follow-Up” value in data set [3] (2 mg/kg/day for 4 days, T120 h) amounted to 4.2 µg/g. For the same molecule, the “liver residue of bromadiolone relative to compound of formula (II)” value in data set [3] (120 hours after the first injection) is on record as 11 times.

Turning to `C/C(=C\Cc1c(O)c2ccccc2oc1=O)CCCC(C)CCCC(C)CCCC(C)C` (stereo not drawn) [Compound According to the Invention, 3-phytyl-4-hydroxy-coumarin], the “Total Mortality” value turned out to be 100% with rats [1] (3 doses of 10 mg/kg intraperitoneally at T0, T24h, T48h, 10 mg/kg) and 100% with rats [1] (3 doses of 10 mg/kg intraperitoneally at T0, T24h, T48h, listed as compounds according to the invention, 10 mg/kg). Besides, the “Mortality Follow-Up” value in the data set on rats [1] (setting [4]) stood at 2 Deaths; with rats [1] (setting [5]) it was 2 Deaths; in the data set on rats [1] (setting [6]), 1 Death. Besides, the “Coagulation Time Follow-Up” value was “Infinite” in the data set on rats [2] (3 doses of 10 mg/kg intraperitoneally at T0, T24h, T48h, T0); “Infinite” in the data set on rats [2] (setting [4]); “Infinite” in the data set with rats [2] (setting [5]); “Infinite” with rats [2] (setting [6]); “Infinite” in the data set on rats [2] (3 doses of 10 mg/kg intraperitoneally at T0, T24h, T48h, T96 h); 120 s in the data set on rats [2] (3 doses of 10 mg/kg intraperitoneally at T0, T24h, T48h, T120 h). Also, in data set [3] (ip, 3 doses of 10 mg/kg intraperitoneally at T0, T24h, T48h, T72 h), the concentration at 72 h was 650 ng/g. The molecule also yielded a concentration at 96 h in data set [3] (ip, 3 doses of 10 mg/kg intraperitoneally at T0, T24h, T48h, T96 h) of 510 ng/g. Further, in data set [3] (ip, 3 doses of 10 mg/kg intraperitoneally at T0, T24h, T48h, T120 h), the concentration at 120 h worked out at 370 ng/g.
